Results taken from publication PMC3676432 (Journal of neurochemistry, 2013).

Legend:
Type in all cases: cell-based
[1] = target: wild-type mouse muscle nAChR (αC192S-C193S background) (Mus musculus, UniProt P02716+P04756+P04760, C212S/C213S); test: Effect of reducing/oxidizing reagents on ACh-induced current amplitude; conditions: DTT 10 mM, 2 min, ACh EC20–50
[2] = target: mouse muscle nAChR αT254C (Mus musculus, UniProt P02716+P04756+P04760, C212S/C213S/T274C); test: as above; conditions: DTT 10 mM, 2 min; T254C; ACh EC20–50
Sequence of mouse muscle nAChR αT254C (P04756 21-457 C212S/C213S/T274C): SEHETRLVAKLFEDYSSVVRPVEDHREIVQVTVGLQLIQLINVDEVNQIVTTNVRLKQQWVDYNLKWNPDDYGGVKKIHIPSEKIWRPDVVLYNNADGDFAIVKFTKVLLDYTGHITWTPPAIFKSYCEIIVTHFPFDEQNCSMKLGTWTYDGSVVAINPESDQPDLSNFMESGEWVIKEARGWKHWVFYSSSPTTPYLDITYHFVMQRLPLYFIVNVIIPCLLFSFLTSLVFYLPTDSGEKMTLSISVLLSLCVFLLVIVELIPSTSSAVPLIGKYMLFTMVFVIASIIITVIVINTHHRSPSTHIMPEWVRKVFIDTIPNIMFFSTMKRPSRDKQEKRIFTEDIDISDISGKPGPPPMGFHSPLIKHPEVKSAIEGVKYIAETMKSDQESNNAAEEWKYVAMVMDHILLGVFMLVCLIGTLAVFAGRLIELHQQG
Sequence of mouse muscle nAChR αT254C (P09690 24-501 partner): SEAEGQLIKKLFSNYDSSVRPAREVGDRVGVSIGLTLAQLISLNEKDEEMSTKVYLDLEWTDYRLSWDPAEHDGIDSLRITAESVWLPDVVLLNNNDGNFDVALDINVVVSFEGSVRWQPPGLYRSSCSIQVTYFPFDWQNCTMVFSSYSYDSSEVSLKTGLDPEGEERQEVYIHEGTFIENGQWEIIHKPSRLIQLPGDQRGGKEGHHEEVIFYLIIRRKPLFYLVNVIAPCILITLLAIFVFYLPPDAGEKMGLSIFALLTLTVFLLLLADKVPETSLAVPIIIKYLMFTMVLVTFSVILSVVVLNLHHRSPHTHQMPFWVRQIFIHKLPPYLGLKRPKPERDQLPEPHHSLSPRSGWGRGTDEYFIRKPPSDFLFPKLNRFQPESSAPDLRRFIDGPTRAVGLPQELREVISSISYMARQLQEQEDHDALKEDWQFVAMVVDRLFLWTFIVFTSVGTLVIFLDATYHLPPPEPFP
Sequence of mouse muscle nAChR αT254C (P04760 23-519): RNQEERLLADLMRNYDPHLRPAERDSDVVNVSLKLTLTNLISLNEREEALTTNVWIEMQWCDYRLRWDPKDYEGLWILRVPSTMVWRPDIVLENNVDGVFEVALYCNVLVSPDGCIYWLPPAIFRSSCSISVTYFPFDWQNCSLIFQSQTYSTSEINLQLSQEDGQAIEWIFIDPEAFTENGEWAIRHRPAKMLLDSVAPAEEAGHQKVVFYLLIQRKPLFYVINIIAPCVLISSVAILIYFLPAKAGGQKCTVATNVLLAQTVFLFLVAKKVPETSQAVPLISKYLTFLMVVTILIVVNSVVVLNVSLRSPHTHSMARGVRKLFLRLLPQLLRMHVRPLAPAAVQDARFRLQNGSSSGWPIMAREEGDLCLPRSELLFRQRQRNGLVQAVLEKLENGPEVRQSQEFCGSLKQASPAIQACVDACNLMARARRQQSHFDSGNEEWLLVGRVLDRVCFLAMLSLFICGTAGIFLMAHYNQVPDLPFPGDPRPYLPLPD
Sequence of mouse muscle nAChR αT254C (P02716 25-520): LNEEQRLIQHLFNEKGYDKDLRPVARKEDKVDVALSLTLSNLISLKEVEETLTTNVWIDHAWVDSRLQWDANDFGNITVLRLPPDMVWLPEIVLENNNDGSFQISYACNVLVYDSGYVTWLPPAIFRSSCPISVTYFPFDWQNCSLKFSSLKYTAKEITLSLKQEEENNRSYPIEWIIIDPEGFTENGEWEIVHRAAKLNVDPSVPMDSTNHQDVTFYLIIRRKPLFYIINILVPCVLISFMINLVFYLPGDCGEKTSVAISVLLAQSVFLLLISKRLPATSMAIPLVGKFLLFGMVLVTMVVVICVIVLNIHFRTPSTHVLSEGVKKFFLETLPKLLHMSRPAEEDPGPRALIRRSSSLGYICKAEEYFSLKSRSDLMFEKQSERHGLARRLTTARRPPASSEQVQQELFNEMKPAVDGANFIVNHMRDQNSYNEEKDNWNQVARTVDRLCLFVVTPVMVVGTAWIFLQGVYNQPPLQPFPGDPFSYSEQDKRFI

[3] = target: mouse muscle nAChR αT254C+M278C (Mus musculus, UniProt P02716+P04756+P04760, C212S/C213S/M298C/T274C); conditions: 2 min
Sequence of mouse muscle nAChR αT254C+M278C (P04756 21-457 C212S/C213S/T274C/M298C): as the sequence (P04756 21-457 C212S/C213S/T274C) above, with M278C counted along it
Sequence of mouse muscle nAChR αT254C+M278C (P09690 24-501 partner): as the sequence (P09690 24-501 partner) above
Sequence of mouse muscle nAChR αT254C+M278C (P04760 23-519): as the sequence (P04760 23-519) above
Sequence of mouse muscle nAChR αT254C+M278C (P02716 25-520): as the sequence (P02716 25-520) above

[4] = target: mouse muscle nAChR αT254C+L279C (Mus musculus, UniProt P02716+P04756+P04760, C212S/C213S/L299C/T274C); conditions: 2 min
Sequence of mouse muscle nAChR αT254C+L279C (P04756 21-457 C212S/C213S/T274C/L299C): as the sequence (P04756 21-457 C212S/C213S/T274C) above, with L279C counted along it
Sequence of mouse muscle nAChR αT254C+L279C (P09690 24-501 partner): as the sequence (P09690 24-501 partner) above
Sequence of mouse muscle nAChR αT254C+L279C (P04760 23-519): as the sequence (P04760 23-519) above
Sequence of mouse muscle nAChR αT254C+L279C (P02716 25-520): as the sequence (P02716 25-520) above

[5] = second DTT 10 mM, after Cu:Phen and EGTA

Sequence of wild-type mouse muscle nAChR (αC192S-C193S background) (P04756 21-457 C212S/C213S): as the sequence (P04756 21-457 C212S/C213S/T274C) above, with C254T counted along it
Sequence of wild-type mouse muscle nAChR (αC192S-C193S background) (P09690 24-501 partner): as the sequence (P09690 24-501 partner) above
Sequence of wild-type mouse muscle nAChR (αC192S-C193S background) (P04760 23-519): as the sequence (P04760 23-519) above
Sequence of wild-type mouse muscle nAChR (αC192S-C193S background) (P02716 25-520): as the sequence (P02716 25-520) above

| Structure (SMILES) | ACh-induced current amplitude after DTT compared to initial current [1] | ACh-induced current amplitude after DTT compared to initial current [2] | increase of current amplitudes by DTT after Cu:Phen [3, 5] | decrease of current amplitudes by DTT after Cu:Phen [4, 5] | EGTA effect on ACh-induced current amplitudes ([3]; EGTA 2 mM, after Cu:Phen) | EGTA effect on ACh-induced current amplitudes ([4]; EGTA 2 mM, after Cu:Phen) |
| --- | --- | --- | --- | --- | --- | --- |
| O[C@@H](CS)[C@@H](O)CS (racemic) [DTT, Dithiothreitol] | not significantly altered | not significantly altered | 29 ± 1% | 47 ± 11% | – | – |
| O=C(O)CN(CCOCCOCCN(CC(=O)O)CC(=O)O)CC(=O)O [EGTA, Ethylene glycol tetraacetic acid] | – | – | – | – | 1 ± 2% | −9 ± 3% |
